System: HCT116
Test: In vitro cytotoxicity measured by the cell colony formation assay
Assay type: cell-based
Conditions: HCT116 cells, 72 h drug incubation, colonies counted after 7 days; ID50 = drug concentration producing 50% inhibition of colony formation; read-out: IN VITRO ID 50 (nm) HCT116
Method: In Vitro Cytotoxicity Measured by the Cell Colony Formation Assay
Four hundred cells (HCT116) were plated in 60 mm Petri dishes containing 2.7 mL of medium (modified McCoy's 5a medium containing 10% fetal bovine serum and 100 units/mL penicillin and 100 µg/mL streptomycin). The cells were incubated in a CO2 incubator at 37° C. for 5 h for attachment to the bottom of Petri dishes. The compounds identified in Example 2 were made up fresh in medium at ten times the final concentration, and then 0.3 mL of this stock solution was added to the 2.7 mL of medium in the dish. The cells were then incubated with drugs for 72 h at 37° C. At the end of incubation the drug-containing media were decanted, the dishes were rinsed with 4 mL of Hank's Balance Salt Solution (HBSS), 5 mL of fresh medium was added, and the dishes were returned to the incubator for colony formation. The cell colonies were counted using a colony counter after incubation for 7 days.

| SMILES | IC50 [nM] |
| --- | --- |
| CCC(=O)O[C@H]1C(=O)[C@@]2(C)C([C@H](OC(=O)c3ccccc3)[C@]3(O)C[C@H](OC(=O)[C@H](O)[C@H](C=C(C)C)NC(=O)OC(C)(C)C)C(C)=C1C3(C)C)[C@]1(OC(C)=O)CO[C@@H]1C[C@@H]2O (stereo partly drawn) [Compound 0499] | < 1 |
| CCC(=O)O[C@H]1C(=O)[C@@]2(C)C([C@H](OC(=O)c3ccccc3)[C@]3(O)C[C@H](OC(=O)[C@H](O)[C@@H](NC(=O)OC(C)(C)C)c4ccccn4)C(C)=C1C3(C)C)[C@]1(OC(C)=O)CO[C@@H]1C[C@@H]2O (stereo partly drawn) [Compound 0503] | < 1 |
| CCC(=O)O[C@H]1C(=O)[C@@]2(C)C([C@H](OC(=O)c3ccccc3)[C@]3(O)C[C@H](OC(=O)[C@H](O)[C@@H](NC(=O)OC(C)(C)C)c4cccnc4)C(C)=C1C3(C)C)[C@]1(OC(C)=O)CO[C@@H]1C[C@@H]2O (stereo partly drawn) [Compound 0517] | < 10 |
| CCC(=O)O[C@H]1C(=O)[C@@]2(C)C([C@H](OC(=O)c3ccccc3)[C@]3(O)C[C@H](OC(=O)[C@H](O)[C@@H](NC(=O)OC(C)(C)C)c4ccncc4)C(C)=C1C3(C)C)[C@]1(OC(C)=O)CO[C@@H]1C[C@@H]2O (stereo partly drawn) [Compound 0521] | < 1 |
| CCC(=O)O[C@H]1C(=O)[C@@]2(C)C([C@H](OC(=O)c3ccccc3)[C@]3(O)C[C@H](OC(=O)[C@H](O)[C@@H](NC(=O)OC(C)(C)C)c4ccco4)C(C)=C1C3(C)C)[C@]1(OC(C)=O)CO[C@@H]1C[C@@H]2O (stereo partly drawn) [Compound 0536] | < 1 |
| CCC(=O)O[C@H]1C(=O)[C@@]2(C)C([C@H](OC(=O)c3ccccc3)[C@]3(O)C[C@H](OC(=O)[C@H](O)[C@@H](NC(=O)OC(C)(C)C)c4ccoc4)C(C)=C1C3(C)C)[C@]1(OC(C)=O)CO[C@@H]1C[C@@H]2O (stereo partly drawn) [Compound 0549] | < 10 |
| CCC(=O)O[C@H]1C(=O)[C@@]2(C)C([C@H](OC(=O)c3ccccc3)[C@]3(O)C[C@H](OC(=O)[C@H](O)[C@@H](NC(=O)OC(C)(C)C)c4cccs4)C(C)=C1C3(C)C)[C@]1(OC(C)=O)CO[C@@H]1C[C@@H]2O (stereo partly drawn) [Compound 0550] | < 10 |
| CCC(=O)O[C@H]1C(=O)[C@@]2(C)C([C@H](OC(=O)c3ccccc3)[C@]3(O)C[C@H](OC(=O)[C@H](O)[C@@H](NC(=O)OC(C)(C)C)c4ccsc4)C(C)=C1C3(C)C)[C@]1(OC(C)=O)CO[C@@H]1C[C@@H]2O (stereo partly drawn) [Compound 0562] | < 1 |
| CCC(=O)O[C@H]1C(=O)[C@@]2(C)C([C@H](OC(=O)c3ccccc3)[C@]3(O)C[C@H](OC(=O)[C@H](O)[C@@H](NC(=O)OC(C)(C)C)C4CC4)C(C)=C1C3(C)C)[C@]1(OC(C)=O)CO[C@@H]1C[C@@H]2O (stereo partly drawn) [Compound 0578] | < 1 |
| CCC(=O)O[C@H]1C(=O)[C@@]2(C)C([C@H](OC(=O)c3ccccc3)[C@]3(O)C[C@H](OC(=O)[C@H](O)[C@@H](NC(=O)OC(C)(C)C)C(C)C)C(C)=C1C3(C)C)[C@]1(OC(C)=O)CO[C@@H]1C[C@@H]2O (stereo partly drawn) [Compound 0583] | < 10 |
| CCC(=O)O[C@H]1C(=O)[C@@]2(C)C([C@H](OC(=O)c3ccccc3)[C@]3(O)C[C@H](OC(=O)[C@H](O)[C@@H](NC(=O)OC(C)(C)C)C4CCC4)C(C)=C1C3(C)C)[C@]1(OC(C)=O)CO[C@@H]1C[C@@H]2O (stereo partly drawn) [Compound 0596] | < 10 |
| CCC(=O)O[C@H]1C(=O)[C@@]2(C)C([C@H](OC(=O)c3ccccc3)[C@]3(O)C[C@H](OC(=O)[C@H](O)[C@@H](NC(=O)OC(C)(C)C)c4ccc([N+](=O)[O-])cc4)C(C)=C1C3(C)C)[C@]1(OC(C)=O)CO[C@@H]1C[C@@H]2O (stereo partly drawn) [Compound 0602] | < 1 |
| CCC(=O)O[C@H]1C(=O)[C@@]2(C)C([C@H](OC(=O)c3ccccc3)[C@]3(O)C[C@H](OC(=O)[C@H](O)[C@@H](NC(=O)OC(C)(C)C)c4ccccc4)C(C)=C1C3(C)C)[C@]1(OC(C)=O)CO[C@@H]1C[C@@H]2O (stereo partly drawn) [Compound 0611] | < 10 |
| CCC(=O)O[C@H]1C(=O)[C@@]2(C)C([C@H](OC(=O)c3ccccc3)[C@]3(O)C[C@H](OC(=O)[C@H](O)[C@H](C=C(C)C)NC(=O)c4ccccc4)C(C)=C1C3(C)C)[C@]1(OC(C)=O)CO[C@@H]1C[C@@H]2O (stereo partly drawn) [Compound 0625] | < 1 |
| CCC(=O)O[C@H]1C(=O)[C@@]2(C)C([C@H](OC(=O)c3ccccc3)[C@]3(O)C[C@H](OC(=O)[C@H](O)[C@@H](NC(=O)c4ccccc4)c4ccccn4)C(C)=C1C3(C)C)[C@]1(OC(C)=O)CO[C@@H]1C[C@@H]2O (stereo partly drawn) [Compound 0634] | < 10 |
| CCC(=O)O[C@H]1C(=O)[C@@]2(C)C([C@H](OC(=O)c3ccccc3)[C@]3(O)C[C@H](OC(=O)[C@H](O)[C@@H](NC(=O)c4ccccc4)c4ccncc4)C(C)=C1C3(C)C)[C@]1(OC(C)=O)CO[C@@H]1C[C@@H]2O (stereo partly drawn) [Compound 0659] | < 1 |
| CCC(=O)O[C@H]1C(=O)[C@@]2(C)C([C@H](OC(=O)c3ccccc3)[C@]3(O)C[C@H](OC(=O)[C@H](O)[C@@H](NC(=O)c4ccccc4)c4ccco4)C(C)=C1C3(C)C)[C@]1(OC(C)=O)CO[C@@H]1C[C@@H]2O (stereo partly drawn) [Compound 0663] | < 1 |

| SMILES | IC50 [nM] |
| --- | --- |
| CCC(=O)O[C@H]1C(=O)[C@@]2(C)C([C@H](OC(=O)c3ccccc3)[C@]3(O)C[C@H](OC(=O)[C@H](O)[C@@H](NC(=O)c4ccccc4)c4ccoc4)C(C)=C1C3(C)C)[C@]1(OC(C)=O)CO[C@@H]1C[C@@H]2O (stereo partly drawn) [Compound 0670] | < 1 |
| CCC(=O)O[C@H]1C(=O)[C@@]2(C)C([C@H](OC(=O)c3ccccc3)[C@]3(O)C[C@H](OC(=O)[C@H](O)[C@@H](NC(=O)c4ccccc4)c4ccsc4)C(C)=C1C3(C)C)[C@]1(OC(C)=O)CO[C@@H]1C[C@@H]2O (stereo partly drawn) [Compound 0691] | < 1 |
| CCC(=O)O[C@H]1C(=O)[C@@]2(C)C([C@H](OC(=O)c3ccccc3)[C@]3(O)C[C@H](OC(=O)[C@H](O)[C@@H](NC(=O)c4ccccc4)C4CC4)C(C)=C1C3(C)C)[C@]1(OC(C)=O)CO[C@@H]1C[C@@H]2O (stereo partly drawn) [Compound 0706] | < 1 |
| CCC(=O)O[C@H]1C(=O)[C@@]2(C)C([C@H](OC(=O)c3ccccc3)[C@]3(O)C[C@H](OC(=O)[C@H](O)[C@@H](NC(=O)c4ccccc4)C(C)C)C(C)=C1C3(C)C)[C@]1(OC(C)=O)CO[C@@H]1C[C@@H]2O (stereo partly drawn) [Compound 0719] | < 10 |
| CCC(=O)O[C@H]1C(=O)[C@@]2(C)C([C@H](OC(=O)c3ccccc3)[C@]3(O)C[C@H](OC(=O)[C@H](O)[C@@H](NC(=O)c4ccccc4)C4CCC4)C(C)=C1C3(C)C)[C@]1(OC(C)=O)CO[C@@H]1C[C@@H]2O (stereo partly drawn) [Compound 0720] | < 10 |
| CCC(=O)O[C@H]1C(=O)[C@@]2(C)C([C@H](OC(=O)c3ccccc3)[C@]3(O)C[C@H](OC(=O)[C@H](O)[C@@H](NC(=O)c4ccccc4)c4ccc([N+](=O)[O-])cc4)C(C)=C1C3(C)C)[C@]1(OC(C)=O)CO[C@@H]1C[C@@H]2O (stereo partly drawn) [Compound 0732] | < 10 |
| CCC(=O)O[C@H]1C(=O)[C@@]2(C)C([C@H](OC(=O)c3ccccc3)[C@]3(O)C[C@H](OC(=O)[C@H](O)[C@@H](NC(=O)c4ccccc4)c4ccccc4)C(C)=C1C3(C)C)[C@]1(OC(C)=O)CO[C@@H]1C[C@@H]2O (stereo partly drawn) [Compound 0748] | < 10 |
| CC(=O)O[C@@]12CO[C@@H]1C[C@H](O)[C@@]1(C)C(=O)[C@H](OC(=O)C3CC3)C3=C(C)[C@@H](OC(=O)[C@H](O)[C@H](C=C(C)C)NC(=O)OC(C)(C)C)C[C@@](O)([C@@H](OC(=O)c4ccccc4)C12)C3(C)C (stereo partly drawn) [Compound 0838] | < 1 |
| CC(=O)O[C@@]12CO[C@@H]1C[C@H](O)[C@@]1(C)C(=O)[C@H](OC(=O)C3CC3)C3=C(C)[C@@H](OC(=O)[C@H](O)[C@@H](NC(=O)OC(C)(C)C)c4ccco4)C[C@@](O)([C@@H](OC(=O)c4ccccc4)C12)C3(C)C (stereo partly drawn) [Compound 0843] | < 1 |
| CC(=O)O[C@@]12CO[C@@H]1C[C@H](O)[C@@]1(C)C(=O)[C@H](OC(=O)C3CC3)C3=C(C)[C@@H](OC(=O)[C@H](O)[C@@H](NC(=O)OC(C)(C)C)c4cccs4)C[C@@](O)([C@@H](OC(=O)c4ccccc4)C12)C3(C)C (stereo partly drawn) [Compound 0854] | < 1 |
| CC(=O)O[C@@]12CO[C@@H]1C[C@H](O)[C@@]1(C)C(=O)[C@H](OC(=O)C3CC3)C3=C(C)[C@@H](OC(=O)[C@H](O)[C@@H](NC(=O)OC(C)(C)C)C4CC4)C[C@@](O)([C@@H](OC(=O)c4ccccc4)C12)C3(C)C (stereo partly drawn) [Compound 0860] | < 1 |
| CC(=O)O[C@@]12CO[C@@H]1C[C@H](O)[C@@]1(C)C(=O)[C@H](OC(=O)C3CC3)C3=C(C)[C@@H](OC(=O)[C@H](O)[C@@H](NC(=O)OC(C)(C)C)c4ccc([N+](=O)[O-])cc4)C[C@@](O)([C@@H](OC(=O)c4ccccc4)C12)C3(C)C (stereo partly drawn) [Compound 0879] | < 1 |
| CC(=O)O[C@@]12CO[C@@H]1C[C@H](O)[C@@]1(C)C(=O)[C@H](OC(=O)C3CC3)C3=C(C)[C@@H](OC(=O)[C@H](O)[C@@H](NC(=O)OC(C)(C)C)c4ccccc4)C[C@@](O)([C@@H](OC(=O)c4ccccc4)C12)C3(C)C (stereo partly drawn) [Compound 0882] | < 1 |
| CC(=O)O[C@@]12CO[C@@H]1C[C@H](O)[C@@]1(C)C(=O)[C@H](OC(=O)C3CC3)C3=C(C)[C@@H](OC(=O)[C@H](O)[C@H](C=C(C)C)NC(=O)c4ccccc4)C[C@@](O)([C@@H](OC(=O)c4ccccc4)C12)C3(C)C (stereo partly drawn) [Compound 0890] | < 1 |
| CC(=O)O[C@@]12CO[C@@H]1C[C@H](O)[C@@]1(C)C(=O)[C@H](OC(=O)C3CC3)C3=C(C)[C@@H](OC(=O)[C@H](O)[C@@H](NC(=O)c4ccccc4)c4ccco4)C[C@@](O)([C@@H](OC(=O)c4ccccc4)C12)C3(C)C (stereo partly drawn) [Compound 0908] | < 1 |
| CC(=O)O[C@@]12CO[C@@H]1C[C@H](O)[C@@]1(C)C(=O)[C@H](OC(=O)C3CC3)C3=C(C)[C@@H](OC(=O)[C@H](O)[C@@H](NC(=O)c4ccccc4)c4cccs4)C[C@@](O)([C@@H](OC(=O)c4ccccc4)C12)C3(C)C (stereo partly drawn) [Compound 0919] | < 1 |
